Measured values taken from patent US8956842B2, “Paenibacillus sp. HPL-3 strain producing xylanase having heat-resistance, a wide range of optimum pH and high activity, a novel xylanase separated from the strain, and a method for mass-production of the same using the transformant originated from the strain” (Korea Research Institute of Chemical Technology, priority 2011, dated 2015).
Where two headings read alike, the source gives them in different places.

Assays:
novel xylanase = experiment: Effect of metal ions and additives on xylanase activity (DNS method); format: biochemical, Paenibacillus sp. HPL-3
Description: (§1) The measurement of xylanase activity (xylan decomposing activity) of the isolated strain, active clone, transformant, and isolated/purified enzyme was performed by either or both of the following two methods. The first method was enzyme activity measuring method using solid culture. Particularly, soft agar double medium was prepared by adding birch xylan (Fluka Bio Chemika. Co.) to LB medium by 0.5˜1.0%, to which the strain was inoculated, followed by culture for overnight. On the next day, the strain and active clone forming translucent zone (halo) around the cultured colony were selected by Congo-red staining. The second method was enzyme activity measuring method using liquid culture, that is DNS (3,5-dinitrosalicylic acid) quantitative method (Miller G. L. Anal Chem 31, 426-428, 1959). Particularly, 50 μl of substrate solution (50 mM Tris-HCl containing birch xylan by 2%, pH 7.0) was added to 50 μl of enzyme solution, followed by reaction at 50° C. for 20 minutes. 200 μl of DNS solution was added thereto, followed by further reaction at 90° C. for 5 minutes. Then, OD540 was measured. 1 unit of the enzyme was defined as the enzyme activity of 1 mg xylanase to produce 1 μmol of reducing sugar (xylose) per 1 minute.
To investigate the effect of metal ions on xylanase activity, CaCl2, MgCl2, MgCl2, CuCl2, ZnCl2, and FeCl3 were added by 1 mM each. It was further investigated how other salts such as NaCl, LiCl, KCl, NH4Cl, EDTA, CsCl2, 2-ME (2-Mercaptoethanol), DTT (Dithiothreitol), PMSF (Penylmethylsulfonyl fluoride), acetate, and furfural could affect xylanase activity.

[1] = Xylanase activity (xylan decomposing activity) by DNS quantitative method at different pH and temperature; format: biochemical
Description: as §1, with “minute. One clone showing the best activity, GM3-SLX1, was selected by liquid culture and solid culture activity test (FIG. 2).” for “minute.”
In this example, pH, temperature, and metal ion-dependent activity of xylanase over-expressed and isolated from the E. coli transformant over-expressing the novel xylanase constructed in Example <3-4> was investigated by the same manner as described in example 3-2. pH of the reaction solution was regulated to pH 4˜5 with citric acid buffer, to pH 6˜8 with phosphate buffer, to pH 7˜9 with Tris/HCl buffer, and to pH 9˜11 with glycine/NaOH buffer. To investigate the effect of metal ions on xylanase activity, CaCl2, MgCl2, MgCl2, CuCl2, ZnCl2, and FeCl3 were added by 1 mM each. It was further investigated how other salts such as NaCl, LiCl, KCl, NH4Cl, EDTA, CsCl2, 2-ME (2-Mercaptoethanol), DTT (Dithiothreitol), PMSF (Penylmethylsulfonyl fluoride), acetate, and furfural could affect xylanase activity.
E. coli BL21-Gold (DE) (Stratagene, USA) was transfected with pIVEX GST-xylanase recombinant vector (Bioprogen Co., Ltd., Korea) containing the gene (SEQ. ID. NO: 3) encoding the novel xylanase represented by SEQ. ID. NO: 4, which was inoculated in liquid medium (LB 25 g/L) supplemented with ampicillin (50 μg/ml), followed by shaking culture at 37° C. at 150 rpm until […] reached 0.4˜0.6. To induce the expression of the target protein in E. coli cells, IPTG (isopropyl-D-thiogalactoside) was added to the suspension at the concentration of 1 mM, followed by further culture for 3 hours. The culture solution was centrifuged at 10,000 rpm for 10 minutes and the recovered precipitate was washed with PBS twice. The washed precipitate was re-suspended in PBS and then cell were lysed by using a ultrasonicator (Cosmo Bio Co., LTD). Centrifugation was performed (12,000 rpm, 10 minutes) to obtain supernatant. To isolate xylanase from the supernatant, glutathione S-transferase column (GST binding resin column, Novagen) was used. For xylanase separation, the obtained supernatant was filled in glutathione S-transferase column (GST binding resin column, Novagen) equilibrated with washing buffer (50 mM Tris-HCl, 100 mM NaCl; pH 7.0), followed by treatment of factor Xa protease (NEB) and separation using washing buffer (50 mM Tris-HCl, 100 mM NaCl; pH 7.0). The enzyme activity of xylanase in each sample recovered from the purification stage was investigated. The purification of active fraction showing the enzyme activity was confirmed by SDS-PAGE. Protein content was measured by using Bradford method (Bradford, Sigma Aldrich), and BSA (bovine serum albumin) was used as the standard protein.

[2] = Enzymatic reaction rate (Lineweaver-Burk) of the purified xylanase; format: biochemical
[3] = 1 mM additive, negative control = 100
[4] = 1 mM of heavy metal or additive

For O[C@H](CS)[C@H](O)CS (racemic) [DTT, Dithiothreitol], the “Relative activity according to conc. of additive (%)” value (shortened to “Relative activity according … (%)”) (novel xylanase; [3]) was 95%.

For OCCS [2-ME, 2-Mercaptoethanol], the “Relative activity according … (%)” value (novel xylanase; [3]) was 89%.

In the case of CC(=O)O [Acetate], the “Relative activity according … (%)” value (novel xylanase; [3]) is reported as 101%.

In the case of [Ca+2].[Cl-].[Cl-] [CaCl2], the “Relative activity according … (%)” value (novel xylanase; [3]) is reported as 102%.

For [Cl-].[Cs+] [CsCl2], the “Relative activity according … (%)” value (novel xylanase; [3]) was 97%.

With O=S(=O)([O-])[O-].[Cu+2] [CuSO4] the “Relative activity according … (%)” value (novel xylanase; [3]) was 26%, the “xylanase activity inhibited by” value (novel xylanase; [4]) was 74% and the “enzyme activity in presence of additive” value (novel xylanase; concentration of 100 HM) was “hardly affected”.

With O=C(O)CN(CCN(CC(=O)O)CC(=O)O)CC(=O)O [EDTA] the “Relative activity according … (%)” value (novel xylanase) was 54%, the “enzyme activity in presence of additive” value (novel xylanase) was “hardly affected” and the “xylanase activity inhibited by” value (novel xylanase) was 46%.

In the case of [Cl][Fe]([Cl])[Cl] [FeCl3], the “Relative activity according … (%)” value (novel xylanase; [3]) is reported as 88%, the “xylanase activity inhibited by” value (novel xylanase; [4]) is reported as 12% and the “enzyme activity in presence of additive” value (novel xylanase; concentration of 100 HM) is reported as “hardly affected”.

In the case of O=Cc1ccco1 [Furfural, furfural], the “Relative activity according … (%)” value (novel xylanase; [3]) is reported as 98%.

With [Cl-].[K+] [KCl] the “Relative activity according … (%)” value (novel xylanase; [3]) was 101%.

For [Cl-].[Li+] [LiCl], the “Relative activity according … (%)” value (novel xylanase; [3]) was 101%.

In the case of [Cl-].[Cl-].[Mg+2] [MgCl2], the “Relative activity according … (%)” value (novel xylanase; [3]) is reported as 93%.

For [Cl][Mn][Cl] [MnCl2], the “Relative activity according … (%)” value (novel xylanase; [3]) was 98%.

In the case of Cl.N [NH4Cl], the “Relative activity according … (%)” value (novel xylanase; [3]) is reported as 99%.

With [Cl-].[Na+] [NaCl] the “Relative activity according … (%)” value (novel xylanase) was 105%.

With O=S(=O)(F)Cc1ccccc1 [PMSF, Penylmethylsulfonyl fluoride] the “Relative activity according … (%)” value (novel xylanase; [3]) was 95%.

With O=S(=O)([O-])[O-].[Zn+2] [ZnSO4] the “Relative activity according … (%)” value (novel xylanase; [3]) was 72%, the “xylanase activity inhibited by” value (novel xylanase; [4]) was 28% and the “enzyme activity in presence of additive” value (novel xylanase; concentration of 100 HM) was “hardly affected”.

B1: novel xylanase: approximately 65 kD xylanase of Paenibacillus sp. HPL-3, amino acid sequence SEQ. ID. NO: 4, produced in E. coli transformant (protein)
chain: MDTLKLYVESSNPAQAYYLDEVEIRQVSETPTTPPTEPTSGIESRFEDGTAQGWVSRMGTETVQVSNADARTGSYSLLTTGRQQTYAGPKLDVTATVQKGSRYTVSAWVKLAPGEQQPAKVRLSVQRDHQGESTYETVVGNTAITTGGWTHLYGTYTLAHEADTVSMYLETPEGTASFYMDDFELSLVPPLAIEKDIPSLHGLYQGQFSIGTAIEAFQTEGAYGELVQKHFNSVVAGNAMKPISLQPSEGQFHWEEADRIVQFAQQHGIAIRFHTLVWHNQTGDWMFKDKNGQPMTPTAENKKLLLDRLETHIRAVAARYKNVITDWDVVNEVIDPDQPDGMRRSKWYQITGTDYIDKAFRVTREAAGPNARLYINDYNTHEPKKRDFLYNLVRDLLAKGVPIDGVGHQSHIRLEFPAIDEMEQSIEKFASLGLDNQITELDMGLYSNDTDHYETIPEAMLIRQAHRYRALFDMFSRQQEHISNVTIWGTDDGNTWLSMFPIARLDKPLLFDERLKAKYAYWALVDPSKVPPLPAGSNE
modifications: SLX-O9 protein sequence
notes: approximately 65 kD xylanase of Paenibacillus sp; ID; NO: 4, produced in E. coli transformant
Molecule B1 has an enzyme activity ([1]; 50° C., pH 5.0) of 97.37 units, an enzyme activity ([1]; 50° C., pH 6.0) of 124.19 units and an enzyme activity ([1]; 50° C., pH 7.0) of 122.21 units. For the same molecule, the enzyme activity ([1]; 50° C., pH 8.0) was 124.61 units, the enzyme activity ([1]; 50° C., pH 9.0) was 122.95 units and the enzyme activity ([1]; 50° C., pH 10.0) was 103.27 units. It also gave an enzyme activity ([1]; 50° C., pH 11.0) of 96.08 units, an enzyme activity ([1]; 60° C., pH 5.0, units = μM of xylose produced by 1 mg of enzyme per 1 minute) of 26.93 units and an enzyme activity ([1]; 60° C., pH 6.0) of 105.19 units. The enzyme activity ([1]; 60° C., pH 7.0) was 123.56 units, the enzyme activity ([1]; 60° C., pH 8.0) was 120.95 units and the enzyme activity ([1]; 60° C., pH 9.0) was 112.25 units. For the same molecule, the enzyme activity ([1]; 60° C., pH 10.0) was 29.89 units, the enzyme activity ([1]; 60° C., pH 11.0) was 22.76 units and the “activity of purified enzyme compared with before purification” value ([1]; after glutathione resin column purification) was “at least 5 times”. For the same molecule, the “xylanase activity when conjugated onto the resin” value ([1]; glutathione resin) was “not changed” and the “xylanase activity against other xylans (beech, oats, etc) compared with birch xylan” value [2] was “similar”.
